Source: patent publication US20240374579A1, “BICYCLIC PGDH INHIBITORS AND METHODS OF MAKING AND USING” (EPIRIUM BIO INC., priority 2021, published 2024)

Tests used:
[1] = target: T1, 15-PGDH/HPGD (Homo sapiens, UniProt P15428); assay: hPGDH inhibitor screening biochemical assay; settings: 10 nM enzyme, 15 μM PGE2, 0.25 mM NAD, fluorescence ex/em 340/485 nm
T1 construct: purchased R&D System 5660-DH
T1 sequence (P15428 1-266): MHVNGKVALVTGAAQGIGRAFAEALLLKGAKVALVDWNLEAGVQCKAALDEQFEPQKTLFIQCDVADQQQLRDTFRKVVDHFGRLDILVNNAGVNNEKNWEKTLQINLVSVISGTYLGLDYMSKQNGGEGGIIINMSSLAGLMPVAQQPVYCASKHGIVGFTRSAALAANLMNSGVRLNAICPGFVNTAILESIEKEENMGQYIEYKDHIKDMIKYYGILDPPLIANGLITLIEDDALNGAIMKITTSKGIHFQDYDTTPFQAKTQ
Method: A hydroxyprostaglandin dehydrogenase inhibition screening biochemical assay can be performed to assess the synthesized inhibitors provided herein. Provided herein is an exemplary biochemical assay for hPGDH inhibitor screening.
The in vitro biochemical assay can be performed in white, 384 plates in total 20 μl reaction volume consisting of 10 nM of 15-PGDH/HPGD (R&D System #5660-DH), 15 μM Prostaglandin E2 (Sigma, Cat #P5640-10MG) and 0.25 mM β-Nicotinamide adenine dinucleotide sodium salt (Sigma, Cat #N0632-5G) made in reaction buffer (50 mM Tris-HCl, pH 7.5, 0.01% Tween 20) at 10-point dose response curve for test/tool compounds. Briefly, 5 μl (4×) of compounds solution and 5 μl (final concentration, 10 nM) of enzyme solution is added to white 384 well plates and incubated for 10 mins at 37° C. 5 μl (4×) of Prostaglandin E2 and 5 μl (4×) of β-Nicotinamide adenine dinucleotide sodium salt is added to the wells and incubated for 10 mins at room temperature. Fluorescence is recorded at ex/em=340 nm/485 nm. The percentage ([…]) inhibition of enzyme activity was determined relative to positive control (1% DMSO) and IC50 was calculated using GraphPad prism software (four parameter-variable slope equation).

[2] = target: T2, 15-PGDH (Homo sapiens, UniProt P15428); assay: A549 cell based assay: PGE2 in supernatant (HTRF), fold induction over IL-1β; settings: A549 cells; for fold induction at 0.001 µM: compound 0.001 μM plus IL-1β versus IL-1β only, read-out: PGE2-HTRF over IL1-β: Fold induction at 0.001 μM; for fold induction at 0.01 µM: compound 0.01 μM plus IL-1β versus IL-1β only, read-out: PGE2-HTRF over IL1-β: Fold induction at 0.01 μM; for fold induction at 0.1 µM: compound 0.1 μM plus IL-1β versus IL-1β only, read-out: PGE2-HTRF over IL1-β: Fold induction at 0.1 μM; for fold induction at 1 µM: compound 1 μM plus IL-1β versus IL-1β only, read-out: PGE2-HTRF over IL1-β: Fold induction at 1 μM
T2 construct: endogenous in cells; host or cells: A549 human lung adenocarcinoma cells
T2 sequence (P15428 1-266): T1 sequence (P15428 1-266)
Method: Cell Based Assay: 15-PGDH is highly expressed in resting human lung adenocarcinoma cells (A549) (Tong et al., 2006), and this cell line was used to assess 15-PGDH inhibition by MF-300Na in vitro.
In this assay, A549 cells are treated with interleukin (IL) 1β, which induces the expression of cycloxygenase-2 and the synthesis of PGE2 (Tong et al., 2006). In the studies evaluating test articles, thirty thousand A549 cells were seeded in 100 μL F12K completed media and incubated for 24 hours at 37° C. with 5% CO2 before being serum-starved for 24 hours. On the day of the experiment, buffer was changed to complete medium, and cells were incubated for 30 minutes with compounds prior to the addition of IL-1β (final concentration of 0.1-0.25 ng/mL) overnight at 37° C. with 5% CO2. Each concentration was run in triplicate. […] The PGE2 in the supernatant was detected and quantified using a Cisbio HTRF technology (Homogeneous Time-Resolved Fluorescence) kit (62P2APEG-62P2APEH) according to the manufacturer's recommendations, quantifying the fold induction of PGE2 of cells treated with IL-1b plus test article, versus treatment with IL-1b only.

**Q.** Which results are given for O=C(c1cnc2c(cnn2-c2ccc(-c3ncn[nH]3)cc2)c1)N1CCC(F)(F)CC1 [Compound C-6]?
**A.** IC50 [1]: < 100 nM; fold induction at 0.001 µM [2]: 0.98; fold induction at 0.01 µM [2]: 2.14; fold induction at 0.1 µM [2]: 5.31; fold induction at 1 µM [2]: 4.88

**Q.** What does the source list for C[C@H]1CCCN(C(=O)c2cnc3c(c2)nnn3-c2ccc(-c3nnc[nH]3)cc2)C1 [Compound C-19]?
**A.** IC50 [1]: < 100 nM; fold induction at 0.001 µM [2]: 1.11; fold induction at 0.01 µM [2]: 1.81; fold induction at 0.1 µM [2]: 3.61; fold induction at 1 µM [2]: 4.5

**Q.** Which IC50 [1] does the source give for C[C@H]1CCCN(C(=O)c2cnc3c(cnn3-c3ccc(N4CCOC4=O)nc3)c2)C1 [Compound C-25] here?
**A.** < 100 nM

**Q.** And the fold induction at 0.001 µM [2]?
**A.** 2.08

**Q.** What about the fold induction at 0.01 µM [2] of the same compound?
**A.** 3.56

**Q.** And the fold induction at 0.1 µM [2]?
**A.** 4.84

**Q.** And the fold induction at 1 µM [2]?
**A.** 6.39

**Q.** Which results are given for C[C@H]1CCCN(C(=O)c2cnc3c(cnn3-c3ccc(N4CCOCC4)nc3)c2)C1 [Compound C-26]?
**A.** fold induction at 0.001 µM [2]: 1.05; fold induction at 0.01 µM [2]: 1.31; fold induction at 0.1 µM [2]: 1.8; fold induction at 1 µM [2]: 3.45

**Q.** C[C@H]1CCCN(C(=O)c2cnc3c(cnn3-c3ccc4nc(N)nn4c3)c2)C1 [Compound C-27] was tested. Which IC50 [1] did it give?
**A.** < 100 nM

**Q.** What about the fold induction at 0.001 µM [2] of the same compound?
**A.** 1.04

**Q.** And the fold induction at 0.01 µM [2]?
**A.** 2.06

**Q.** What about the fold induction at 0.1 µM [2] of the same compound?
**A.** 3.36

**Q.** What about the fold induction at 1 µM [2] of the same compound?
**A.** 4.68

**Q.** With O=C(c1cnc2c(cnn2-c2cncc(N3CCOCC3)c2)c1)N1CCC(F)(F)CC1 [Compound C-28] as the compound, how does the fold induction at 0.001 µM [2] read?
**A.** 1.04

**Q.** And the fold induction at 0.01 µM [2]?
**A.** 0.76

**Q.** What about the fold induction at 0.1 µM [2] of the same compound?
**A.** 2.06

**Q.** And the fold induction at 1 µM [2]?
**A.** 3.61

**Q.** For Cc1nc(-c2ccc(-n3nnc4cc(C(=O)N5CCC[C@H](C)C5)cnc43)cc2)no1 [Compound C-29], which fold induction at 0.001 µM [2] is on record?
**A.** 3.78

**Q.** And the fold induction at 0.01 µM [2]?
**A.** 4.08

**Q.** What about the fold induction at 0.1 µM [2] of the same compound?
**A.** 6.4

**Q.** And the fold induction at 1 µM [2]?
**A.** 4.88

**Q.** How did the fold induction at 0.001 µM [2] turn out when CCOc1ccc(-n2nnc3cc(C(=O)N4CCC[C@H](C)C4)cnc32)cc1 [Compound C-30] was run?
**A.** 1.16

**Q.** What about the fold induction at 0.01 µM [2] of the same compound?
**A.** 1.68

**Q.** What about the fold induction at 0.1 µM [2] of the same compound?
**A.** 2.5

**Q.** What about the fold induction at 1 µM [2] of the same compound?
**A.** 3.79

**Q.** For C[C@H]1CCCN(C(=O)c2cnc3c(cnn3-c3ccc(N4CCNC4=O)nc3)c2)C1 [Compound C-57], which IC50 [1] is on record?
**A.** < 100 nM

**Q.** And the fold induction at 0.001 µM [2]?
**A.** 4.07

**Q.** And the fold induction at 0.01 µM [2]?
**A.** 4.94

**Q.** And the fold induction at 0.1 µM [2]?
**A.** 4.94

**Q.** And the fold induction at 1 µM [2]?
**A.** 4.86

**Q.** Which fold induction at 0.001 µM [2] does the source give for O=C(c1cnc2c(cnn2-c2ccc(-c3nnc[nH]3)cc2)c1)N1CCCC(F)(F)C1 [Compound C-59] here?
**A.** 0.91

**Q.** And the fold induction at 0.01 µM [2]?
**A.** 3.09

**Q.** What about the fold induction at 0.1 µM [2] of the same compound?
**A.** 4.74

**Q.** What about the fold induction at 1 µM [2] of the same compound?
**A.** 4.32

**Q.** With O=C(c1cnc2c(cnn2-c2ccc(-c3nnc[nH]3)c(Cl)c2)c1)N1CCSCC1 [Compound C-68] as the compound, how does the IC50 [1] read?
**A.** < 100 nM

**Q.** Which IC50 [1] does the source give for O=C(c1cnc2c(cnn2-c2ccc(-c3nnc[nH]3)c(F)c2)c1)N1CC[S+]([O-])CC1 [Compound C-69] here?
**A.** 100 to 1000 nM

**Q.** For O=C(c1cnc2c(cnn2-c2ccc(-c3nnc[nH]3)c(Cl)c2)c1)N1CC[S+]([O-])CC1 [Compound C-70], which IC50 [1] is on record?
**A.** 100 to 1000 nM

**Q.** Which IC50 [1] does the source give for COc1cc(-c2nnc[nH]2)cc(-n2ncc3cc(C(=O)N4CCC(F)(F)CC4)cnc32)c1 [Compound C-71] here?
**A.** < 100 nM

**Q.** How did the IC50 [1] turn out when Cc1cc(-n2ncc3cc(C(=O)N4CCC(F)(F)CC4)cnc32)ccc1-c1nnc[nH]1 [Compound C-72] was run?
**A.** < 100 nM

**Q.** O=C(c1cnc2c(cnn2-c2ccc(-c3nnc[nH]3)cc2F)c1)N1CCC(F)(F)CC1 [Compound C-73] was tested. Which IC50 [1] did it give?
**A.** < 100 nM

**Q.** Which IC50 [1] does the source give for COc1cc(-n2ncc3cc(C(=O)N4CCC(F)(F)CC4)cnc32)ccc1-c1nnc[nH]1 [Compound C-74] here?
**A.** < 100 nM

**Q.** How did the IC50 [1] turn out when CCOC(=O)Nc1cncc(-n2ncc3cc([S+]([O-])CC4CC4)cnc32)c1 (centres unmarked) [Compound C-90] was run?
**A.** 100 to 1000 nM

**Q.** For CCCC[S+]([O-])c1cnc2c(cnn2-c2cccc(-c3nnc[nH]3)c2)c1 (centres unmarked) [Compound C-92], which IC50 [1] is on record?
**A.** 100 to 1000 nM

**Q.** CCCC[S+]([O-])c1cnc2c(cnn2-c2ccc(-c3nnc[nH]3)cc2)c1 (centres unmarked) [Compound C-93] was tested. Which IC50 [1] did it give?
**A.** 100 to 1000 nM

**Q.** Which IC50 [1] does the source give for CCCC[S+]([O-])c1cnc2c(cnn2-c2cncc(NC(=O)OCC)c2)c1 (centres unmarked) [Compound C-94] here?
**A.** 100 to 1000 nM

**Q.** Which IC50 [1] does the source give for [O-][S+](CC1CC1)c1cnc2c(cnn2-c2ccc(-c3nnc[nH]3)cc2)c1 (centres unmarked) [Compound C-95] here?
**A.** 100 to 1000 nM

**Q.** COCC(=O)Nc1cncc(-n2ncc3cc([S+]([O-])C4CCC(F)(F)CC4)cnc32)c1 (centres unmarked) [Compound C-124] was tested. Which IC50 [1] did it give?
**A.** < 100 nM

**Q.** Which IC50 [1] does the source give for O=C(O)c1ccc(-c2cnc3cc(C(=O)N4CCC(F)(F)CC4)ccn23)cc1 [Compound D-1, 4-(7-(4,4-difluoropiperidine-1-carbonyl)imidazo[1,2-a]pyridin-3-yl)benzoic acid] here?
**A.** < 100 nM

**Q.** With O=C(O)c1ccc(-c2cnc3cc(C(=O)N4CCC(F)(F)CC4)ccn23)cn1 [Compound D-2, 5-(7-(4,4-difluoropiperidine-1-carbonyl)imidazo[1,2-a]pyridin-3-yl)picolinic acid] as the compound, how does the IC50 [1] read?
**A.** 100 to 1000 nM

**Q.** Which IC50 [1] does the source give for O=C(c1ccn2c(-c3ccc(-c4ncn[nH]4)nc3)cnc2c1)N1CCC(F)(F)CC1 [Compound D-3, (3-(6-(1H-1,2,4-triazol-5-yl)pyridin-3-yl)imidazo[1,2-a]pyridin-7-yl)(4,4-difluoropiperidin-1-yl)methanone] here?
**A.** 100 to 1000 nM

**Q.** For O=C(O)c1ccc(-n2cc3cc(C(=O)N4CCC(F)(F)CC4)ccc3n2)cc1 [Compound D-4, 4-(5-(4,4-difluoropiperidine-1-carbonyl)-2H-indazol-2-yl) benzoic acid], which IC50 [1] is on record?
**A.** 100 to 1000 nM
